Data on 5 compounds can be found in ChEMBL document CHEMBL1127154, “Azido-functionalized thiourea analogues acting as efficient photoaffinity probes for the urea channel” (1993).

The structures appear in SMILES notation.

Test [1] relates to frog. Kind of test: Concentration in urinary bladder of female frog. Format: functional, tissue-based.
Test [2] can be described thus: Compound was tested for its ability to inhibit the urea facilitated transport in the urinary bladder of female frog, activity expressed as percent inhibition. Format: functional.
Test [3] can be described thus: Compound was tested for its ability to inhibit the urea facilitated transport in the urinary bladder of female frog after illumination, activity expressed as irreversibility of illumination. Format: functional.
The subject of test [4] is frog. The test is described as follows: Concentration in urinary bladder of female frog; very low solubility. Format: functional, tissue-based.

For orientation: Inhibition means the percentage by which the read-out fell short of the control. The low end stands for a response near the control, the high end for a response far below the control. For the compound `C/N=C(\S)Nc1ccc(Cl)c(N=[N+]=[N-])c1`, the Concentration in test [1] was 31.6 µM. Further, in test [2], the Inhibition amounted to 50%. For the same compound, the Irreversibility in test [3] was determined as 100%.

As to `[N-]=[N+]=Nc1ccc(NC(=S)Nc2ccc(Cl)c(Cl)c2)cc1`, in test [4], the Concentration result is reported as “very low solubility”.

Turning to `[N-]=[N+]=Nc1cc(/N=C(/N)S)ccc1Cl`, the Concentration in test [1] is 60.3 µM. This compound gave an Inhibition in test [2] of 50%. This compound also registered an Irreversibility in test [3] of 100%.

Compound `C/N=C(\S)Nc1nc2cc(N=[N+]=[N-])ccc2[nH]1` displayed a Concentration in test [1] of 500 µM. Moreover, in test [2], the Inhibition is 29%. In test [3], this compound yielded an Irreversibility of 100%.

In the case of `[N-]=[N+]=Nc1ccc(/N=C(/N)S)cc1`, in test [1], the Concentration came out at 500 µM. This compound had an Inhibition in test [2] of 25%. The compound further gave an Irreversibility in test [3] of 100%.
